From patent US12441803B2, “Engineered CD25 polypeptides and uses thereof” (iBio, Inc., priority 2018, dated 2025)

Tested on: alanine mutant versions of CD25
Assay: Alanine mutagenesis functional epitope mapping
Conditions: binding responses to alanine mutant versions of CD25
Method: Alanine mutagenesis was selected as an orthogonal method for binning antibodies because it operates on the functional epitope, rather than the structural epitope defined by competition assays. Various pairs of surface-accessible residues were selected for mutagenesis.
Each of 117 scFv's from the screening campaign were tested against four alanine mutations pairs (FIG. 31).

basiliximab
Ala-mutant epitope mapping of control antibody: Ala mutant binding responses corroborate crystal structure of the basiliximab epitope
